# In patent US10758539B2, “Therapeutic compounds and uses thereof” (Kala Pharmaceuticals, Inc., priority 2013, dated 2020):
# Read-outs that look alike come from different tables or passages of the source.
# Legend:
# [1] = Particle size of compounds milled with PLURONIC F127 as MPP, by dynamic light scattering; assay type: physicochemical; conditions: formulated as MPP, milled with PLURONIC F127, buffered with DPBS
# Text: The compounds of the present invention synthesized in accordance with the preceding Examples were formulated as mucus penetrating particles (MPP). Specifically, Compound 4 of Example 1, Compound 9 of Example 2, and Compound 13 of Example 3 were each milled in the presence of PLURONIC F127 (F127) to determine whether F127 1) aids particle size reduction to several hundreds of nanometers and 2) physically (non-covalently) coats the surface of generated nanoparticles with a mucoinert coating that would minimize particle interactions with mucus constituents and prevent mucus adhesion.
# A milling procedure was employed in which an aqueous dispersion containing coarse drug particles and PLURONIC F127 (F127) was milled with grinding medium until particle size was reduced below 400 nm as measured by dynamic light scattering. Table 4 lists the size of particles and polydispersity index (a measure of the width of the particle size distribution) generated using this technique. In this example suspensions were buffered using DPBS (Dulbecco's Phosphate-Buffered Saline) which yields a suspension that is both isotonic and has a physiologically relevant pH.
# [2] = Pharmacokinetic study, back of the eye drug exposure after topical instillation of MPP; assay type: in vivo, Dutch-belted rabbits; conditions: Dutch-belted, rabbit, topical or ocular, 50 μL of 0.5% MPP, MPP 0.5%, 50 μL topical, BID 5 days, 8 mm round punch
# Text: (§1) Dutch-belted rabbits were used in these studies.
# The portion of the retina and choroid collected and analyzed was an 8 mm round punch where the macula is located in humans.
# [3] = Draize-Ocular Irritation assessment during the PK study; assay type: in vivo, Dutch-belted rabbits; conditions: MPP 0.5%, 50 μL topical, BID 5 days
# Text: as §1
# [4] = Physical and chemical stability of Compound 4 solutions at ambient temperature; assay type: physicochemical; conditions: 20-25° C.
# Method: In this example, Compound 4 was formulated as a solution for topical ocular administration. Solutions of Compound 4 were formulated at a range of concentrations. Briefly, Compound 4 was first completely solubilized using an acidic solution (0.1N HCl) at a high concentration of ˜5% (w/v). The final formulation was diluted to 0.5, 0.1, or 0.05% (w/v) Compound 4 into 20 mM Citrate buffered solution containing TWEEN 80 as described in Table 7. Following dilution, the pH's of the formulations were estimated to be ˜5.5-6.5, using a universal pH indicator solution (Ricca).
# Solution physical and chemical stability at ambient temperature (20-25° C.) were evaluated 10-21 days after initial formulation (tfinal). Physical stability was assessed visually. No precipitation or sedimentation in any samples was observed. All formulations maintained good chemical stability, within 10% of target concentration at tfinal. The API purity as defined by % peak area for all formulations were also high, at >99% (Table 8). Formulations pH's were also measured using a universal pH indicator solution (RICCA) and confirmed be similar to those at initial time of formulation.
# [5] = target API 0.05% (w/v), TWEEN 80 0.05% (w/v), tfinal 13 days
# [6] = target API 0.10% (w/v), TWEEN 80 0.1% (w/v), tfinal 21 days
# [7] = target API 0.50% (w/v), TWEEN 80 4% (w/v), tfinal 10 days
Compound,Particle Size [1],Polydispersity Index (PDI) [1],"AUC(0-t) ([2]; choroid, read-out: AUC0-last Choroid)","Cmax ([2]; choroid, read-out: Cmax Choroid)","AUC(0-t) ([2]; retina, read-out: AUC0-last Retina)","Cmax ([2]; retina, read-out: Cmax Retina)",Draize-Ocular Irritation [3],"API % (w/v) at t = tfinal [4, 5]","API % peak area at t = tfinal [4, 5]","API % (w/v) at t = tfinal [4, 6]","API % peak area at t = tfinal [4, 6]","API % (w/v) at t = tfinal [4, 7]","API % peak area at t = tfinal [4, 7]"
"COc1cc2c(Oc3ccc4[nH]c(C)cc4c3F)ncnc2cc1OCCCN1CCC2(CC1)COC2 [Compound 4, 7-(3-(4-(4-fluoro-2-methyl-1H-indol-5-yloxy)-6-methoxyquinazolin-7-yloxy)propyl)-2-oxa-7-azaspiro[3.5]nonane]",270 nm,0.142,37.2 µM·h,3900 nM,1.15 µM·h,193 nM,no irritation was seen,0.05 % (w/v),99.45%,0.11 % (w/v),99.47%,0.51 % (w/v),99.27%
"CCCNC(=O)n1c(C)cc2c(F)c(Oc3ncnc4cc(OC)c(OC)cc34)ccc21 [Compound 13, 5-(6,7-Dimethoxyquinazolin-4-yloxy)-4-fluoro-2-methyl-N-propyl-1H-indole-1-carboxamide]",165 nm,0.227,,,,,,,,,,,
